Patent publication US20240368163A1, “COMPOUNDS AND METHODS FOR MODULATING SPLICING” (REMIX THERAPEUTICS INC., priority 2021, published 2024)
Like-named read-outs stand apart in the source and are kept apart here.

Tests used:
Assay type in all cases: cell-based, human
Target C [1] = test: Splicing RT-qPCR panel, Target C canonical junction (CJ) mRNA; details: Homo sapiens, read-out: Target C IC50 (decrease in CJ mRNA levels)
Protocol: (§1) Compounds described herein were used to modulate RNA transcript abundance in cells. The expression of a target mRNA was measured by detecting the formation of an exon-exon junction in the canonical transcript (CJ). A compound mediated exon-inclusion event was detected by observing an increase in formation of a new junction with an alternative exon (AJ). Real-time qPCR assays were used to detect these splicing switches and interrogate the potency of various compounds towards different target genes. A high-throughput real time quantitative PCR (RT-qPCR) assay was developed to measure these two isoforms of the mRNA (CJ and AJ) for exemplary genes, such as HTT, SMN2, and MYB, together with a control housekeeping gene, GAPDH or GUSB or PPIA, used for normalization. Briefly, the A673 or K562 cell line was treated with various compounds described herein (e.g., compounds of Formula (I)). After treatment, the levels of the HTT, MYB, or SMN2 mRNA targets were determined from each sample of cell lysate by cDNA synthesis followed by qPCR.
(§2) The A673 cell line was cultured in DMEM with 10% FBS. Cells were diluted with full growth media and plated in a 96-well plate (15,000 cells in 100 ul media per well). The plate was incubated at 37° C. with 5% CO2 for 24 hours to allow cells to adhere. An 11-point 3-fold serial dilution of the compounds was made in DMSO then diluted in media in an intermediate plate. Compounds were transferred from the intermediate plate to the cell plate with the top dose at a final concentration of 10 uM in the well. Final DMSO concentration was kept at or below 0.25%. The cell plate was returned to the incubator at 37° C. with 5% CO2 for an additional 24 hours.
(§3) The K562 cell line was cultured in IMDM with 10% FBS. For K562, cells were diluted with full growth media and plated in either a 96-well plate (50,000 cells in 50 uL media per well) or a 384-well plate (8,000-40,000 cells in 45 uL media per well). An 11-point 3-fold serial dilution of the compounds were made in DMSO then diluted in media in an intermediate plate. Compound was transferred from the intermediate plate to the cell plate with the top dose at a final concentration of 10 uM in the well. Final DMSO concentration was kept at or below 0.25%. Final volume was 100 uL for 96-well plate and 50 uL for 384-well plate. The cell plate was then placed in an incubator at 37° C. with 5% CO2 for 24 hours.
(§4) The cells were then gently washed with 50 uL-100 uL cold PBS before proceeding to addition of lysis buffer. 30 uL-50 μL of room temperature lysis buffer with DNAse I (and optionally RNAsin) was added to each well. Cells were shaken/mixed thoroughly at room temperature for 5-10 minutes for lysis to take place and then 3 uL-5 μL of room temperature stop solution was added and wells were shaken/mixed again. After 2-5 minutes, the cell lysate plate was transferred to ice for RT-qPCR reaction setup. The lysates could also be frozen at −80° C. for later use.
(§5) In some cases, a direct lysis buffer was used. An appropriate volume of 3× lysis buffer (10 mM Tris, 150 mM NaCl, 1.5%-2.5% Igepal and 0.1-1 U/uL RNAsin, pH 7.4) was directly added to either K562 or A673 cells in media and mixed by pipetting 3 times. The plates were then incubated at room temperature with shaking/rocking for 20-50 minutes to allow for lysis to take place. After this time, the cell lysate plate was transferred to ice to set up for the RT-qPCR reactions. The lysates could also be frozen at −80° C. for later use.
(§6) To set up 10 uL RT-qPCR reactions, cell lysates were transferred to 384-well qPCR plates containing the master mix according to the table below. The plates were sealed, gently vortexed, and spun down before the run. The volumes were adjusted accordingly in some instances where the reaction was carried in 20 μL. The table below summarizes the components of the RT-qPCR reactions:
(§7) The RT-qPCR reaction was performed using a QuantStudio (ThermoFisher) under the following fast cycling conditions. […]

HTT [2] = test: Splicing RT-qPCR assay, HTT mRNA canonical junction (CJ) and alternative junction (AJ); details: Homo sapiens; for AC50: increase in AJ mRNA
Protocol: as §1, §2, §3, §4, §5, §6, §7

MYB [3] = test: HiBiT protein abundance assay, MYB; details: Homo sapiens, K562, 24 h, modified K562 cells
Protocol: (§8) Compounds described herein were used to screen for effects on quantitative protein abundance using a HiBit assay system (Promega). Quantitative protein abundance was determined by measuring the protein levels of HiBit-tagged protein targets expressed in cell culture via luminescence using the Nano-Glo HiBiT Lytic Detection System, which uses a split complementation assay format to reconstitute NanoBiT enzyme to generate a luminescent signal. A protein abundance assay was developed such that endogenous protein targets could be modified with the HiBiT peptide tag and their abundance could be assessed after compound treatment. Briefly, K562 cell lines containing a HiBiT-modification were treated with various compounds described herein (e.g., compounds of Formulas (I), (II), or (III)). After treatment for 24 hours, the protein abundance of a specific target was determined by measuring luminescence.
(§9) Cells were maintained in IMIDM with 10% FBS. Before the assay, cells were diluted with […] growth media (IMIDM+[…] media) and were seeded in a 384-well plate at a density of 10000 cells/well (for each cell line listed in Table 12). Each compound was prepared as a 10-point 3-fold serial dilution in DMSO with the top dose at a final concentration of 10 μM in the well. Unmodified K562 cells were added at the previously specified density with DMSO to serve as an assay baseline and positive control (PC) and DMSO only with the respective modified cell lines was added to the negative control (NC) columns. Final DMSO concentration was kept at or below 0.25%. Treated cell plates were placed in an incubator at 37° C. with 5% CO2 for 24 hours. After 24 hours, 25 μL of Complete HiBit Lytic reagent was added to each well at room temperature (e.g. one plate requiring 10 mL Lytic Buffer, 100 μL LgBiT Protein, 200 μL Lytic Substrate), shaken for 5 minutes at 600 RPM, then left to sit for 10 minutes for signal to stabilize before reading on a Spark Cyto plate reader (Tecan) with a 500 ms measurement time.
(§10) To determine compound effects on protein abundance of each target in Table 12, the percent response for each respective cell line was calculated at each compound concentration as follows:
(§11) For the normalized response at each concentration, a four-parameter logistical regression was fit to the data and the response was interpolated at the 50% value to determine a concentration for protein abundance at 50% (IC50) the untreated control.

SMN2 = test: Splicing RT-qPCR panel, SMN2 canonical junction (CJ) mRNA; details: Homo sapiens, read-out: SMN2 IC50 (decrease in CJ mRNA levels)
Protocol: as §1, §2, §3, §4, §5, §6, §7

HTT [4] = test: HiBiT protein abundance assay, HTT; details: Homo sapiens, K562, 24 h, modified K562 cells
Protocol: as §8, §9, §10, §11

MYB [5] = test: Splicing RT-qPCR assay, MYB mRNA canonical junction (CJ) and alternative junction (AJ); details: Homo sapiens; for AC50: increase in AJ mRNA
Protocol: as §1, §2, §3, §4, §5, §6, §7

Target C [6] = test: HiBiT protein abundance assay, Target C; details: Homo sapiens, K562, 24 h, modified K562 cells
Protocol: • Promega Nano-Glo HiBiT Lytic Detection System (cat #N3030) • Coming 384-well TC-treated microplates (cat #3570) • Synthego Engineered Cells Knock-In Clones
as §9, §10, §11

[7] = gene panel, CJ qPCR, protocol of Example 142
[8] = gene panel, CJ qPCR, protocol of Example 142, read-out: HTT IC50 (decrease in CJ mRNA levels)
[9] = gene panel, CJ qPCR, protocol of Example 142, read-out: MYB IC50 (decrease in CJ mRNA levels)
[10] = RT-qPCR panel, canonical junction mRNA, compound concentration having 50% response in CJ decrease
[11] = 24 h, A673 or K562 cells, 24 hours treatment, RT-qPCR
[12] = RT-qPCR panel, canonical junction mRNA, compound concentration having 50% response in CJ decrease, read-out: HTT IC50 (decrease in CJ mRNA levels)
[13] = 24 h, decrease in CJ mRNA, A673 or K562 cells, 24 hours treatment, RT-qPCR, read-out: MYB CJ IC50
[14] = RT-qPCR panel, canonical junction mRNA, compound concentration having 50% response in CJ decrease, read-out: MYB IC50 (decrease in CJ mRNA levels)

For COc1nc(-c2ccc(N[C@@H]3C[C@H]4CC[C@@H](C3)N4)nn2)ccc1-c1cn(C)nn1 [Compound 944], the IC50 (Target C [1]; [7]) was 1000 to 10000 nM, the IC50 (HTT [2]; [8]) was 100 to 1000 nM and the IC50 (MYB [3]; Table 13B) was 100 to 1000 nM. It also gave an IC50 (SMN2; [7]) of 100 to 1000 nM, an IC50 (HTT [4]; Table 13B) of 1000 to 10000 nM and an IC50 (MYB [5]; [9]) of 1000 to 10000 nM. For the same molecule, the IC50 (Target C [6]; Table 13B) was 1000 to 10000 nM.
For Cn1ncc(-c2ccc(-c3ccc(N[C@@H]4C[C@H]5CC[C@@H](C4)N5)nn3)c3[nH]ncc23)n1 [Compound 322], the IC50 (Target C [1]; [10]) was less than 100 nM, the AC50 (HTT [2]; [11]) was less than 100 nM and the IC50 (HTT [2]; [12]) was less than 100 nM. For the same molecule, the IC50 (MYB [3]; Table 13A) was less than 100 nM, the IC50 (SMN2; [10]) was less than 100 nM and the IC50 (HTT [4]; Table 13A) was less than 100 nM. The IC50 (MYB [5]; [13]) was less than 100 nM, the AC50 (MYB [5]; [11]) was less than 100 nM and the IC50 (MYB [5]; [14]) was less than 100 nM. For the same molecule, the IC50 (Target C [6]; Table 13A) was less than 100 nM.
In the case of COc1nc(-c2ccc(N(C)[C@@H]3C[C@H]4CC[C@@H](C3)N4)nn2)ccc1-c1cn(C)nn1 [Compound 945], the IC50 (Target C [1]; [7]) is reported as 1000 to 10000 nM, the IC50 (HTT [2]; [8]) is reported as 100 to 1000 nM and the IC50 (MYB [3]; Table 13B) is reported as 100 to 1000 nM. It also gave an IC50 (SMN2; [7]) of less than 100 nM, an IC50 (HTT [4]; Table 13B) of 100 to 1000 nM and an IC50 (MYB [5]; [9]) of 1000 to 10000 nM. The IC50 (Target C [6]; Table 13B) was 100 to 1000 nM.
COc1nc(-c2ccc(OC3CC4CC(F)(F)C(C3)N4)nn2)ccc1-c1ccnc(C)c1 (stereo not shown) [Compound 964] gave an IC50 (Target C [1]; [7]) greater than 10000 nM, an IC50 (HTT [2]; [8]) greater than 10000 nM and an IC50 (MYB [3]; Table 13B) greater than 10000 nM. For the same molecule, the IC50 (SMN2; [7]) was greater than 10000 nM, the IC50 (HTT [4]; Table 13B) was greater than 10000 nM and the IC50 (MYB [5]; [9]) was greater than 10000 nM. The IC50 (Target C [6]; Table 13B) was greater than 10000 nM.
CCOc1nc(-c2ccc(N(C)[C@@H]3C[C@H]4CC[C@@H](C3)N4)nn2)ccc1-c1cn[nH]c1 [Compound 929] was tested, and the IC50 (Target C [1]; [7]) was less than 100 nM, the IC50 (HTT [2]; [8]) was less than 100 nM and the IC50 (MYB [3]; Table 13B) was less than 100 nM. It also gave an IC50 (SMN2; [7]) of less than 100 nM, an IC50 (HTT [4]; Table 13B) of less than 100 nM and an IC50 (MYB [5]; [9]) of less than 100 nM. For the same molecule, the IC50 (Target C [6]; Table 13B) was less than 100 nM.
Work on CN(c1ccc(-c2ccc(-c3cn[nH]c3)c3[nH]ncc23)nn1)[C@@H]1C[C@H]2CC[C@@H](C1)N2 [Compound 329] yielded an IC50 (Target C [1]; [10]) greater than 10000 nM, an IC50 (HTT [2]; 24 h, decrease in CJ mRNA, A673 or K562 cells, 24 hours treatment, RT-qPCR, read-out: HTT CJ IC50) greater than 10000 nM and an AC50 (HTT [2]; [11]) greater than 10000 nM. It also gave an IC50 (HTT [2]; [12]) greater than 10000 nM, an IC50 (MYB [3]; Table 13A) greater than 10000 nM and an IC50 (SMN2; [10]) of 1000 to 10000 nM. It also gave an IC50 (HTT [4]; Table 13A) greater than 10000 nM, an IC50 (MYB [5]; [13]) greater than 10000 nM and an AC50 (MYB [5]; [11]) greater than 10000 nM. The IC50 (MYB [5]; [14]) was greater than 10000 nM and the IC50 (Target C [6]; Table 13A) was greater than 10000 nM.
